US20260184710A1, “CASITAS B-LINEAGE LYMPHOMA PROTOONCOGENE B (CBL-B) DEGRADING COMPOUNDS AND ASSOCIATED METHODS OF USE” (Arvinas Operations, Inc., priority 2022, published 2026)

Key:
Cbl-b [1] = target: T1, Cbl-b (Homo sapiens, UniProt Q13191); experiment: Cbl-b Degradation Method A (FACS, anti-Cbl-b antibody staining); assay type: cell-based; details: Cbl-b-HiBit KI Jurkat Cells, incubated at least 20 hours; for DC50: half maximal degradation, read-out: Cbl-b Degredation Method A IC50; for Dmax: Jurkat, maximum degradation observed, read-out: Cbl-b Degredation Method A Dmax (%)
T1 construct: Cbl-b-HiBit KI Jurkat Cells were purchased from Promega; host or cells: Cbl-b-HiBiT knock-in Jurkat cells
T1 sequence (Q13191 whole entry): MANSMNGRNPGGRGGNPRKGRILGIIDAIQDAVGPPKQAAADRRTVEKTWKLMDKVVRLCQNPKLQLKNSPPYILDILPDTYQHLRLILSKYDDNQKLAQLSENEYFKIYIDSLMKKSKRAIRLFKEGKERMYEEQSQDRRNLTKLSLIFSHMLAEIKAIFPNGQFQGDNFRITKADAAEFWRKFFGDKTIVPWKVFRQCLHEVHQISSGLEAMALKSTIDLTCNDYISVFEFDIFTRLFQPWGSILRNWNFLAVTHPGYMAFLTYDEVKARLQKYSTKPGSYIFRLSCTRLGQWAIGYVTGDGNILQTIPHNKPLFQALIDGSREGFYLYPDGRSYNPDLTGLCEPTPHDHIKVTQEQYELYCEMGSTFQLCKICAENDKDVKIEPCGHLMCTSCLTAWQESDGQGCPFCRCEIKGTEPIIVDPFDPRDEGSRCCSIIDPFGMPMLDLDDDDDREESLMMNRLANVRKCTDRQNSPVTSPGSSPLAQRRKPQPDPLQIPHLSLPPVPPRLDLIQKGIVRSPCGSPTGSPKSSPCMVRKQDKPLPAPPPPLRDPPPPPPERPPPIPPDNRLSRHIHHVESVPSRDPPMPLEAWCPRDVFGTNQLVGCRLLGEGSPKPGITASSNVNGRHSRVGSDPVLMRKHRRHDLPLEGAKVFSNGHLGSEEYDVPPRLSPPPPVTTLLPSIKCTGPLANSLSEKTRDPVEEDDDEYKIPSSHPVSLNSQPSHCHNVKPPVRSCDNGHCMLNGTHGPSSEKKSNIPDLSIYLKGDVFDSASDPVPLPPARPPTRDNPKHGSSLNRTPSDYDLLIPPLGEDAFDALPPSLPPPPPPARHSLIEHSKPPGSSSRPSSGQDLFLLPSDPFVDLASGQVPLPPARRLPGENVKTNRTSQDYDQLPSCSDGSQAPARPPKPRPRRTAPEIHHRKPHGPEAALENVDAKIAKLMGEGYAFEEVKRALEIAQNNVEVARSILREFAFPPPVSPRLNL
In short: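 Cbl-b-HiBit KI Jurkat cells treated with compound for at least 20 h at 37 °C, then fixed, permeabilized and stained with anti-Cbl-b antibody plus anti-rabbit AF488 secondary. Cbl-b levels read by FACS; DC50 and Dmax (percent of control) derived.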

Cbl-b [2] = target: T1, Cbl-b; experiment: Cbl-b Degradation Method B (Nano-Glo HiBiT lytic detection); assay type: cell-based; details: Cbl-b-HiBit KI Jurkat Cells, incubated at least 6-24 hours; for DC50: half maximal degradation, read-out: Cbl-b Degredation Method B IC50; for Cbl-b Degredation Method B Dmax (%): maximum degradation observed
In short: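 Cbl-b-HiBiT knock-in Jurkat cells (20,000/well) were treated after ~24 h plating with an 11-point 1:3 series for 6-24 h at 37° C. Remaining Cbl-b measured by Nano-Glo HiBiT lytic luminescence. DC50 and Dmax expressed as % of control.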

Compound | DC50 (Cbl-b [1]) [nM] | Dmax (Cbl-b [1]) [%] | DC50 (Cbl-b [2]) [nM] | Cbl-b Degredation Method B Dmax (%) (Cbl-b [2])
COC1CC(Cc2nncn2C)(c2cccc(N3Cc4c(cc(CN5CCN(C[C@H]6CC[C@H](OC7CCN(c8ccc9c(n8)C(C)N(C8CCC(=O)NC8=O)C9=O)CC7)CC6)CC5(C)C)cc4C(F)(F)F)C3=O)c2)C1 (some centres unmarked) [Example 294, 3-[7-methyl-5-oxo-2-(4-{[(1r,4r)-4-[(4-{[2-(3-{3-methoxy-1-[(4-methyl-4H-1,2,4-triazol-3-yl)methyl]cyclobutyl}phenyl)-3-oxo-7-(trifluoromethyl)-2,3-dihydro-1H-isoindol-5-yl]methyl}-3,3-dimethylpiperazin-1-yl)methyl]cyclohexyl]oxy}piperidin-1-yl)-5H,6H,7H-pyrrolo[3,4-b]pyridin-6-yl]piperidine-2,6-dione] | 50 to 500 | > 70 | < 5 | C (C ≤ 35)
Cn1cnnc1C[C@]1(c2cccc(N3Cc4c(cc(CN5CCN(C[C@H]6CC[C@H](OC7CCN(c8ccc9c(n8)n(C)c(=O)n9C8CCC(=O)NC8=O)CC7)CC6)CC5(C)C)cc4C(F)(F)F)C3=O)c2)C[C@H](C#N)C1 (some centres unmarked) [Example 300, (1r,3r)-3-(3-{6-[(2,2-dimethyl-4-{[(1r,4r)-4-({1-[1-(2,6-dioxopiperidin-3-yl)-3-methyl-2-oxo-1H,2H,3H-imidazo[4,5-b]pyridin-5-yl]piperidin-4-yl}oxy)cyclohexyl]methyl}piperazin-1-yl)methyl]-1-oxo-4-(trifluoromethyl)-2,3-dihydro-1H-isoindol-2-yl}phenyl)-3-[(4-methyl-4H-1,2,4-triazol-3-yl)methyl]cyclobutane-1-carbonitrile] | 50 to 500 | 35 to 70 | < 5 | C (C ≤ 35)
Cn1cnnc1C[C@]1(c2cccc(N3Cc4c(cc(CN5CCN(C[C@H]6CC[C@H](OC7CCN(c8cccc9c8n(C)c(=O)n9C8CCC(=O)NC8=O)CC7)CC6)CC5(C)C)cc4C(F)(F)F)C3=O)c2)C[C@H](C#N)C1 (some centres unmarked) [Example 301, (1r,3r)-3-(3-{6-[(2,2-dimethyl-4-{[(1r,4r)-4-({1-[1-(2,6-dioxopiperidin-3-yl)-3-methyl-2-oxo-2,3-dihydro-1H-1,3-benzodiazol-4-yl]piperidin-4-yl}oxy)cyclohexyl]methyl}piperazin-1-yl)methyl]-1-oxo-4-(trifluoromethyl)-2,3-dihydro-1H-isoindol-2-yl}phenyl)-3-[(4-methyl-4H-1,2,4-triazol-3-yl)methyl]cyclobutane-1-carbonitrile] | 50 to 500 | > 70 | < 5 | C (C ≤ 35)
CC(C)n1c(=O)n(C2CCC(=O)NC2=O)c2cccc(N3CCC(O[C@H]4CC[C@H](CN5CCN(Cc6cc7c(c(C(F)(F)F)c6)CN(c6cccc([C@]8(Cc9nncn9C)C[C@@H](C#N)C8)c6)C7=O)C(C)(C)C5)CC4)CC3)c21 (some centres unmarked) [Example 302, (1r,3r)-3-(3-{6-[(2,2-dimethyl-4-{[(1r,4r)-4-({1-[1-(2,6-dioxopiperidin-3-yl)-2-oxo-3-(propan-2-yl)-2,3-dihydro-1H-1,3-benzodiazol-4-yl]piperidin-4-yl}oxy)cyclohexyl]methyl}piperazin-1-yl)methyl]-1-oxo-4-(trifluoromethyl)-2,3-dihydro-1H-isoindol-2-yl}phenyl)-3-[(4-methyl-4H-1,2,4-triazol-3-yl)methyl]cyclobutane-1-carbonitrile] | 50 to 500 | 35 to 70 | 5 to 50 | C (C ≤ 35)
CC1c2nc(N3CCC(CN4CCC(CN5CCN(Cc6cc7c(c(C(F)(F)F)c6)CN(c6cccc([C@]8(Cc9nncn9C)C[C@@H](C#N)C8)c6)C7=O)C(C)(C)C5)CC4)CC3)ccc2C(=O)N1C1CCC(=O)NC1=O (some centres unmarked) [Example 303, (1r,3r)-3-(3-{6-[(4-{[1-({1-[6-(2,6-dioxopiperidin-3-yl)-7-methyl-5-oxo-5H,6H,7H-pyrrolo[3,4-b]pyridin-2-yl]piperidin-4-yl}methyl)piperidin-4-yl]methyl}-2,2-dimethylpiperazin-1-yl)methyl]-1-oxo-4-(trifluoromethyl)-2,3-dihydro-1H-isoindol-2-yl}phenyl)-3-[(4-methyl-4H-1,2,4-triazol-3-yl)methyl]cyclobutane-1-carbonitrile] | 5 to 50 | 35 to 70 | < 5 | C (C ≤ 35)
CC1c2nc(N3CCC(CN4CCN(CC5CCN(Cc6cc7c(c(C(F)(F)F)c6)CN(c6cccc([C@]8(Cc9nncn9C)C[C@@H](C#N)C8)c6)C7=O)C6(CC6)C5)CC4)CC3)ccc2C(=O)N1C1CCC(=O)NC1=O (some centres unmarked) [Example 310, (1r,3r)-3-(3-{6-[(7-{[4-({1-[6-(2,6-dioxopiperidin-3-yl)-7-methyl-5-oxo-5H,6H,7H-pyrrolo[3,4-b]pyridin-2-yl]piperidin-4-yl}methyl)piperazin-1-yl]methyl}-4-azaspiro[2.5]octan-4-yl)methyl]-1-oxo-4-(trifluoromethyl)-2,3-dihydro-1H-isoindol-2-yl}phenyl)-3-[(4-methyl-4H-1,2,4-triazol-3-yl)methyl]cyclobutane-1-carbonitrile] | 5 to 50 | 35 to 70 | 5 to 50 | C (C ≤ 35)
Cn1cnnc1CC1(c2cccc(N3Cc4c(cc(CN5CCN(C[C@H]6CC[C@H](OC7CCN(c8cccc9c8n(C8CC8)c(=O)n9C8CCC(=O)NC8=O)CC7)CC6)CC5(C)C)cc4C(F)(F)F)C3=O)c2)CC(C#N)C1 (some centres unmarked) [Example 312, (1r**,3r**)-3-(3-{6-[(2,2-dimethyl-4-{[(1r*,4r*)-4-({1-[3-cyclopropyl-1-(2,6-dioxopiperidin-3-yl)-2-oxo-2,3-dihydro-1H-1,3-benzodiazol-4-yl]piperidin-4-yl}oxy)cyclohexyl]methyl}piperazin-1-yl)methyl]-1-oxo-4-(trifluoromethyl)-2,3-dihydro-1H-isoindol-2-yl}phenyl)-3-[(4-methyl-4H-1,2,4-triazol-3-yl)methyl]cyclobutane-1-carbonitrile] | 50 to 500 | 35 to 70 | < 5 | C (C ≤ 35)
Cn1cnnc1CC1(c2cccc(N3Cc4c(cc(CN5CCN(C[C@H]6CC[C@H](OC7CCN(c8cccc9c8ncn9C8CCC(=O)NC8=O)CC7)CC6)CC5(C)C)cc4C(F)(F)F)C3=O)c2)CC(C#N)C1 (some centres unmarked) [Example 314, (1r**,3r**)-3-(3-{6-[(2,2-dimethyl-4-{[(1r*,4r*)-4-({1-[1-(2,6-dioxopiperidin-3-yl)-1H-1,3-benzodiazol-4-yl]piperidin-4-yl}oxy)cyclohexyl]methyl}piperazin-1-yl)methyl]-1-oxo-4-(trifluoromethyl)-2,3-dihydro-1H-isoindol-2-yl}phenyl)-3-[(4-methyl-4H-1,2,4-triazol-3-yl)methyl]cyclobutane-1-carbonitrile] | 5 to 50 | 35 to 70 | 50 to 500 | B (35 < B < 70)
Cn1cnnc1CC1(c2cccc(N3Cc4c(cc(CN5CCN(C[C@H]6CC[C@H](OC7CCN(c8cccc9c8CC(=O)N9C8CCC(=O)NC8=O)CC7)CC6)CC5(C)C)cc4C(F)(F)F)C3=O)c2)CC(C#N)C1 (some centres unmarked) [Example 315, (1r**,3r**)-3-(3-{6-[(2,2-dimethyl-4-{[(1r*,4r*)-4-({1-[1-(2,6-dioxopiperidin-3-yl)-2-oxo-2,3-dihydro-1H-indol-4-yl]piperidin-4-yl}oxy)cyclohexyl]methyl}piperazin-1-yl)methyl]-1-oxo-4-(trifluoromethyl)-2,3-dihydro-1H-isoindol-2-yl}phenyl)-3-[(4-methyl-4H-1,2,4-triazol-3-yl)methyl]cyclobutane-1-carbonitrile] | 50 to 500 | 35 to 70 | < 5 | C (C ≤ 35)
Cn1cnnc1CC1(c2cccc(N3Cc4c(cc(CN5CCN(C[C@H]6CC[C@H](OC7CCN(c8ccc9c(c8)CC(=O)N9C8CCC(=O)NC8=O)CC7)CC6)CC5(C)C)cc4C(F)(F)F)C3=O)c2)CC(C#N)C1 (some centres unmarked) [Example 316, (1r**,3r**)-3-(3-{6-[(2,2-dimethyl-4-{[(1r*,4r*)-4-({1-[1-(2,6-dioxopiperidin-3-yl)-2-oxo-2,3-dihydro-1H-indol-5-yl]piperidin-4-yl}oxy)cyclohexyl]methyl}piperazin-1-yl)methyl]-1-oxo-4-(trifluoromethyl)-2,3-dihydro-1H-isoindol-2-yl}phenyl)-3-[(4-methyl-4H-1,2,4-triazol-3-yl)methyl]cyclobutane-1-carbonitrile] | 50 to 500 | > 70 | < 5 | C (C ≤ 35)
CC(C)n1c(=O)n(C2CCC(=O)NC2=O)c2cccc(N3CCC(O[C@H]4CC[C@H](CN5CCC6(CCN(Cc7cc8c(c(C(F)(F)F)c7)CN(c7cccc([C@]9(Cc%10nncn%10C)C[C@@H](C#N)C9)c7)C8=O)CC6)CC5)CC4)CC3)c21 (some centres unmarked) [Example 317, (1r,3r)-3-[(4-methyl-4H-1,2,4-triazol-3-yl)methyl]-3-(3-{1-oxo-6-[(9-{[(1r,4r)-4-({1-[1-(2,6-dioxopiperidin-3-yl)-2-oxo-3-(propan-2-yl)-2,3-dihydro-1H-1,3-benzodiazol-4-yl]piperidin-4-yl}oxy)cyclohexyl]methyl}-3,9-diazaspiro[5.5]undecan-3-yl)methyl]-4-(trifluoromethyl)-2,3-dihydro-1H-isoindol-2-yl}phenyl)cyclobutane-1-carbonitrile] | 50 to 500 | 35 to 70 | < 5 | C (C ≤ 35)
